Measured values reported in PubChem BioAssay AID1963848 (Molecular Pharmacology Branch, DTP, NCI, 2024).

Test system: 379773-124-R-J2-PDC spheroid viability
Test: Anticancer human tumor 379773-124-R-J2-PDC patient-derived endometrial carcinoma cell line growth inhibition [POLQ]
Conditions: spheroids with HUVEC and MSC; for IC50: curve of first compound; for viability, T/C: stronger effect = lower value
Method in brief: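 PDC + HUVEC + MSC complex spheroids; POLQ inhibitors ± partner drugs; top conc. at/near clinical Cmax, else 10 microM (SN-38 1 microM), half-log dilutions; 37 degrees C, 5% CO2.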

[1] = second compound 0.0316 µM, first compound 0.0316 µM
[2] = second compound 0.0316 µM, first compound 0.1 µM
[3] = second compound 0.0316 µM, first compound 0.316 µM
[4] = second compound 0.0316 µM, first compound 1 µM
[5] = second compound 0.0316 µM, first compound 3.16 µM
[6] = second compound 0.0316 µM, first compound 10 µM
[7] = second compound 0.1 µM, first compound 0.0316 µM
[8] = second compound 0.1 µM, first compound 0.1 µM
[9] = second compound 0.1 µM, first compound 0.316 µM
[10] = second compound 0.1 µM, first compound 1 µM
[11] = second compound 0.1 µM, first compound 3.16 µM
[12] = second compound 0.1 µM, first compound 10 µM
[13] = second compound 0.316 µM, first compound 0.0316 µM
[14] = second compound 0.316 µM, first compound 0.1 µM
[15] = second compound 0.316 µM, first compound 0.316 µM
[16] = second compound 0.316 µM, first compound 1 µM
[17] = second compound 0.316 µM, first compound 3.16 µM
[18] = second compound 0.316 µM, first compound 10 µM
[19] = second compound 1 µM, first compound 0.0316 µM
[20] = second compound 1 µM, first compound 0.1 µM
[21] = second compound 1 µM, first compound 0.316 µM
[22] = second compound 1 µM, first compound 1 µM
[23] = second compound 1 µM, first compound 3.16 µM
[24] = second compound 1 µM, first compound 10 µM
[25] = second compound 3.16 µM, first compound 0.0316 µM
[26] = second compound 3.16 µM, first compound 0.1 µM
[27] = second compound 3.16 µM, first compound 0.316 µM
[28] = second compound 3.16 µM, first compound 1 µM
[29] = second compound 3.16 µM, first compound 3.16 µM
[30] = second compound 3.16 µM, first compound 10 µM
[31] = second compound 10 µM, first compound 0.0316 µM
[32] = second compound 10 µM, first compound 0.1 µM
[33] = second compound 10 µM, first compound 0.316 µM
[34] = second compound 10 µM, first compound 1 µM
[35] = second compound 10 µM, first compound 3.16 µM
[36] = second compound 10 µM, first compound 10 µM
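Also: spheroids exposed to drugs for seven days before readout.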
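For viability, T/C in this document: percent viability relative to DMSO vehicle control taken as 100%.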

CC(C)n1c(=O)n(C)c2cnc3cc(F)c(-c4ccc(OCCCN5CCCCC5)nc4)cc3c21 + Cc1cccc(N(C)C(=O)C2C(O)CCN2c2nc(C)cc(C(F)(F)F)c2C#N)c1
IC50 (second compound 0.0316 µM): > 10000 nM | IC50 (second compound 0.1 µM): > 10000 nM | IC50 (second compound 0.316 µM): > 10000 nM | IC50 (second compound 1 µM): > 10000 nM | IC50 (second compound 3.16 µM): > 10000 nM | IC50 (second compound 10 µM): > 10000 nM | viability, T/C [1]: 89.1% | viability, T/C [2]: 76.9% | viability, T/C [3]: 83.4% | viability, T/C [4]: 77.9% | viability, T/C [5]: 83% | viability, T/C [6]: 59.9% | viability, T/C [7]: 88.8% | viability, T/C [8]: 77.1% | viability, T/C [9]: 77.2% | viability, T/C [10]: 79.9% | viability, T/C [11]: 98.7% | viability, T/C [12]: 65.8% | viability, T/C [13]: 80.3% | viability, T/C [14]: 89.8% | viability, T/C [15]: 75.9% | viability, T/C [16]: 73.6% | viability, T/C [17]: 79.7% | viability, T/C [18]: 65.1% | viability, T/C [19]: 84% | viability, T/C [20]: 75.1% | viability, T/C [21]: 80.1% | viability, T/C [22]: 73.1% | viability, T/C [23]: 79.1% | viability, T/C [24]: 69.8% | viability, T/C [25]: 73.7% | viability, T/C [26]: 75.3% | viability, T/C [27]: 75.3% | viability, T/C [28]: 64.4% | viability, T/C [29]: 72% | viability, T/C [30]: 72.1% | viability, T/C [31]: 78.7% | viability, T/C [32]: 79.5% | viability, T/C [33]: 89.2% | viability, T/C [34]: 73.9% | viability, T/C [35]: 70.3% | viability, T/C [36]: 56.1%

CC1COCCN1c1cc(-c2ccnn2C)c2ccnc(-c3ccn[nH]3)c2n1 (stereo unspecified) + Cc1cccc(N(C)C(=O)C2C(O)CCN2c2nc(C)cc(C(F)(F)F)c2C#N)c1
IC50 (second compound 0.0316 µM): 99.4 nM | IC50 (second compound 0.1 µM): 102 nM | IC50 (second compound 0.316 µM): 84.7 nM | IC50 (second compound 1 µM): 74.2 nM | IC50 (second compound 3.16 µM): 102 nM | IC50 (second compound 10 µM): 96.3 nM | viability, T/C [1]: 81.4% | viability, T/C [2]: 49.9% | viability, T/C [3]: 12.2% | viability, T/C [4]: 10.4% | viability, T/C [5]: 9.61% | viability, T/C [6]: 5.75% | viability, T/C [7]: 83.7% | viability, T/C [8]: 50.7% | viability, T/C [9]: 16.9% | viability, T/C [10]: 10.2% | viability, T/C [11]: 8.42% | viability, T/C [12]: 6.47% | viability, T/C [13]: 79.4% | viability, T/C [14]: 45.1% | viability, T/C [15]: 10.8% | viability, T/C [16]: 7.57% | viability, T/C [17]: 9.57% | viability, T/C [18]: 7.53% | viability, T/C [19]: 76.5% | viability, T/C [20]: 40.7% | viability, T/C [21]: 13.5% | viability, T/C [22]: 8.7% | viability, T/C [23]: 8.89% | viability, T/C [24]: 6.67% | viability, T/C [25]: 76.9% | viability, T/C [26]: 50.7% | viability, T/C [27]: 14% | viability, T/C [28]: 9.29% | viability, T/C [29]: 8.28% | viability, T/C [30]: 6.05% | viability, T/C [31]: 70.5% | viability, T/C [32]: 49.3% | viability, T/C [33]: 14% | viability, T/C [34]: 9.57% | viability, T/C [35]: 9.04% | viability, T/C [36]: 5.97%

CC1COCCN1c1cc(C2(S(C)(=N)=O)CC2)nc(-c2ccnc3[nH]ccc23)n1 (stereo unspecified) + Cc1cccc(N(C)C(=O)C2C(O)CCN2c2nc(C)cc(C(F)(F)F)c2C#N)c1
IC50 (second compound 0.0316 µM): 2060 nM | IC50 (second compound 0.1 µM): 1870 nM | IC50 (second compound 0.316 µM): 1970 nM | IC50 (second compound 1 µM): 1840 nM | IC50 (second compound 3.16 µM): 2030 nM | IC50 (second compound 10 µM): 1630 nM | viability, T/C [1]: 83.3% | viability, T/C [2]: 84.7% | viability, T/C [3]: 81.1% | viability, T/C [4]: 77% | viability, T/C [5]: 34.2% | viability, T/C [6]: 5.98% | viability, T/C [7]: 89.4% | viability, T/C [8]: 91.2% | viability, T/C [9]: 79.7% | viability, T/C [10]: 81.5% | viability, T/C [11]: 23.9% | viability, T/C [12]: 5.96% | viability, T/C [13]: 87.1% | viability, T/C [14]: 97% | viability, T/C [15]: 80.1% | viability, T/C [16]: 78.6% | viability, T/C [17]: 30.6% | viability, T/C [18]: 8.62% | viability, T/C [19]: 81.4% | viability, T/C [20]: 78.8% | viability, T/C [21]: 79.8% | viability, T/C [22]: 69.4% | viability, T/C [23]: 32.7% | viability, T/C [24]: 6.64% | viability, T/C [25]: 84.4% | viability, T/C [26]: 88.7% | viability, T/C [27]: 79.2% | viability, T/C [28]: 61.8% | viability, T/C [29]: 42.2% | viability, T/C [30]: 7.75% | viability, T/C [31]: 84.6% | viability, T/C [32]: 73.3% | viability, T/C [33]: 79.2% | viability, T/C [34]: 62.5% | viability, T/C [35]: 32.2% | viability, T/C [36]: 8.39%
